In one experiment the target is T1, EphA2-ephrinA1 binding (Mus musculus, UniProt Q03145).
T1 construct: we immobilized EphA2-Fc- ectodomain on proper ELISA plates; purchased R&D systems 639-A2 (EphA2-Fc); BT602 (biotinylated ephrinA1-Fc)
Description: ELISA EphA2-ephrinA1 binding (displacement and saturation). Conditions: for decrease of EphA2-ephrinA1 binding: bile acids, repeat of the 200 µM experiment. Here is the method: Our chemical collection (Table S1) was stocked in a 20 mM dimethyl sulfoxide (DMSO) solution and we performed binding assay at a concentration of 200 µM. Only compounds displacing more than 40% ephrinA1 from EphA2 receptor were considered for a full concentration-binding curve. […] The day after wells were washed three times with washing buffer (PBS +0.05% tween20, pH 7.5) and blocked with 300 µl of blocking solution (PBS +0.5% BSA) for 1 hour at 37°C. Compounds were added to the wells at proper concentration in 1% dimethyl sulfoxide (DMSO) and incubated at 37°C for 1 hour. Biotinylated ephrinA1-Fc (R&D BT602) was added at 37°C for 4 hours at 30 ng/ml in displacement assays or in a range from 1 to 2000 ng/ml in saturation studies. […] The reaction was stopped with 3N HCl 100 µl/well and the absorbance was measured using an ELISA plate reader (Sunrise, TECAN, Switzerland) at 450 nm.
The IC50 value was determined using one-site competition non-linear regression and Kd values of the curves with or without antagonists were calculated using one-binding site non-linear regression analysis with Prism software (GraphPad Software Inc.). The Ki was obtained using Schild plot where Log[DR-1] is a function of the negative Log10 of the inhibitor concentration. The Hill's coefficient was calculated using linear fitting to evaluate whether the inhibition was competitive or uncompetitive.
To identify compounds interfering with EphA2-ephrinA1 binding we immobilized EphA2-Fc- ectodomain on proper ELISA plates and binding of biotinylated-ephrin-A1-Fc was detected using the colorimetric reaction developed by streptavidine-HRP and tetramethylbenzidine.

Experiment [1] addresses T2, EphA2 (Homo sapiens, UniProt P29317). Put plainly: Phosphorylated-EphA2 sandwich ELISA in PC3 cell lysates. Conditions: PC3 cells, 100 µM. Also noted: their known ability to naturally express EphA2; endogenous in cells; host or cells: PC3 (A5). The class given is cell-based. How it is done: (§1) Cells were seeded in 12-well plates at concentration of 10^5cells/ml in complete medium until they reached ∼40% confluence and serum starved overnight. The day after cells were treated with compounds under study, vehicle or standard drug, stimulated with the proper agonist, rinsed with sterile PBS and solubilized in lysis buffer. The lysates were resuspended and rocked at 4°C for 30 minutes and then centrifuged at 14000 xg for 5 minutes. The protein content of supernatant was measured with BCA protein assay kit (Thermo scientific), standardized to 200 µg/ml and transferred into a clean test tube ready to be used.
(§2) EphA2-, EphB4- and EGFR-phosphorylation were measured in cell lysates using DuoSet®IC Sandwich ELISA (RnD Systems, #DYC4056, #DYC4057 and #DYC1095, respectively) following manufacturer's protocol. […] The day after wells were washed and blocked for 1 hour at room temperature. After that, wells were washed and 100 µl/well of lysates were added at room temperature for 2 hours; wells were washed and incubated with Detection Antibody at room temperature for 2 hours.
(§3) EphB4 phosphorylation was stimulated with 3 µg/ml ephrinB2-Fc, preclustered with 0.3 µg/ml IgG Fc fragment on T47D cells (G, H, I). […] Phospho-EphA2/B4 levels are relative to ephrinA1/B2-Fc+DMSO. Data are the means of at least three independent experiment ± st. err. One-way ANOVA followed by Dunnet's post test was performed comparing Fc to all other columns for Fig A, D, G and ephrinA1-Fc+DMSO to all other columns for Fig B,C,E, F, H, I. *, p<0.05, **, p<0.01.
On the technique in general: An ELISA detects its analyte on a solid surface through an enzyme-linked reagent.

The target in experiment [2] is T2, EphA2. Description: Phosphorylated-EphA2 sandwich ELISA in HT29 cell lysates. To be noted: HT29 cells, 100 µM. Type of experiment: cell-based. Also noted: their known ability to naturally express EphA2; endogenous in cells; host or cells: HT29 (A6). Here is the method: as §1, §2, §3

T2 sequence (P29317 24-976): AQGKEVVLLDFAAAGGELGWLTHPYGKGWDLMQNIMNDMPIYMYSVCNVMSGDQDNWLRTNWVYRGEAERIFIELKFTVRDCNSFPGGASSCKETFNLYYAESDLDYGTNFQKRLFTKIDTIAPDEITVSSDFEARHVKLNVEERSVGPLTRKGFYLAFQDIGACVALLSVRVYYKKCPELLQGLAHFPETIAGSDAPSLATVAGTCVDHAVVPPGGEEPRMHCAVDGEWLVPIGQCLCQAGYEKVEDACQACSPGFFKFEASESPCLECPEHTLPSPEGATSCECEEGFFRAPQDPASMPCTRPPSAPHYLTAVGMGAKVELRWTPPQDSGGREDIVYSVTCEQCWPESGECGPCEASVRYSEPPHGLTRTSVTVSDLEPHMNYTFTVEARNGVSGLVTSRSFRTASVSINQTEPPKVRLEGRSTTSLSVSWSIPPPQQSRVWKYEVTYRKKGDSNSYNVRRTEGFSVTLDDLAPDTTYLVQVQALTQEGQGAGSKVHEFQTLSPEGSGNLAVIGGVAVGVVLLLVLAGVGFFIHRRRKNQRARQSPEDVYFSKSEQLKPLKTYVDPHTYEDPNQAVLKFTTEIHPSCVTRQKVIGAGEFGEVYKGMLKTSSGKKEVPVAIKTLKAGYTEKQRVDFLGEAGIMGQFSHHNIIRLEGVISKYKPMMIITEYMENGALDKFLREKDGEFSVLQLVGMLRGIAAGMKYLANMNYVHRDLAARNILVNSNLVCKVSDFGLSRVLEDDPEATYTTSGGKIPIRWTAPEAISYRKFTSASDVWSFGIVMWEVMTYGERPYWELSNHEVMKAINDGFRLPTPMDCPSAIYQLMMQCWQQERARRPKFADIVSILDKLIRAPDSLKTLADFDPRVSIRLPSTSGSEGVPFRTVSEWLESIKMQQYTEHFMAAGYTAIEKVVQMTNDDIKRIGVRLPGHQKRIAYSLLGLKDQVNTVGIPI
T1 sequence (Q03145 26-538 limits assumed): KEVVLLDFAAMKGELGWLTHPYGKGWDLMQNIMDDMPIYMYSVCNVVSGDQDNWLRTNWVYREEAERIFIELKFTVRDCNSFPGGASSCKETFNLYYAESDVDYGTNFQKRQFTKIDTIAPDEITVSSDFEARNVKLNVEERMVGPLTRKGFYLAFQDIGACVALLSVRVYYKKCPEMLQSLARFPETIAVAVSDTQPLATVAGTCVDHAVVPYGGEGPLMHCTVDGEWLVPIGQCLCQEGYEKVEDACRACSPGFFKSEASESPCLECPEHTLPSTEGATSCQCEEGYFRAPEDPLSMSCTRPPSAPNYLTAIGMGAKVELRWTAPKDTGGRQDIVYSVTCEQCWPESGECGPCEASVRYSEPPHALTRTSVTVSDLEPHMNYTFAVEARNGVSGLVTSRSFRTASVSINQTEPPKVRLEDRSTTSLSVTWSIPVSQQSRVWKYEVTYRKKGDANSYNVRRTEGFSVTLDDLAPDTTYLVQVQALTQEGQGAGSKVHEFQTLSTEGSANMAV

As to `C[C@H](CCC(=O)O)[C@H]1CC[C@H]2[C@@H]3[C@H](O)C[C@@H]4C[C@H](O)CC[C@]4(C)[C@H]3CC[C@]12C` [CDCA, chenodeoxycholic], the “decrease of EphA2-ephrinA1 binding” value on EphA2-ephrinA1 binding was “did not displaced”. Also, the “effect on Eph kinase phosphorylation as agonist or antagonist” value (from here on “effect on Eph kinase phosphorylation”) on EphA2 [1] and on EphA2 [2] was “inactive” throughout.

Consider `C[C@H](CCC(=O)O)[C@H]1CC[C@H]2[C@@H]3[C@H](O)C[C@@H]4C[C@H](O)CC[C@]4(C)[C@H]3C[C@H](O)[C@]12C` [CA, cholic], for which the “decrease of EphA2-ephrinA1 binding” value at EphA2-ephrinA1 binding is on record as “did not displaced”. The “effect on Eph kinase phosphorylation” value at EphA2 [1] and on EphA2 [2] was “inactive” each time.

With `C[C@H](CCC(=O)O)[C@H]1CC[C@H]2[C@@H]3CC[C@@H]4C[C@H](O)CC[C@]4(C)[C@H]3C[C@H](O)[C@]12C` [DCA, deoxycholic], at EphA2-ephrinA1 binding, the “decrease of EphA2-ephrinA1 binding” value is given as “did not displaced”. In addition, the “effect on Eph kinase phosphorylation” value on EphA2 [1] and at EphA2 [2] was “inactive” throughout.

B1: ephrinA1-Fc: recombinant ephrinA1-Fc protein, ligand of the EphA2-Fc receptor (protein)
chain: DRHIVFWNSSNPKFREEDYTVHVQLNDYLDIICPHYEDDSVADAAMERYTLYMVEHQEYVACQPQSKDQVRWNCNRPSAKHGPEKLSEKFQRFTPFILGKEFKEGHSYYYISKPIYHQESQCLKLKVTVNGKITHNPQAHVNPQEKRLQADDPEVQVLHSIGYS
modifications: Ectodomain only, with the C-terminal IgG Fc carrier omitted; The Fc chimera is a disulfide-linked dimer; Limits follow the mature ectodomain without the signal peptide and GPI propeptide, by supplier
For the molecule B1, the “Ki of EphA2-biotinylated-ephrin-A1 binding inhibition” value in the experiment with EphA2-ephrinA1 binding (assay validation, Figure S1) amounted to 0.102 µg/mL.

Source of the values: PMC3068151 (PLoS ONE, 2011).
